Experimental data taken from publication PMC8069289 (Molecules, 2021).
Entries after “also recorded” stand apart in the source; their conditions may differ. Marks after values point to notes of the source that are not given here.

Columns and labels:
Drosophila melanogaster [1] = experiment: Chronic treatments: lifespan and healthspan assays; assay type: in vivo; conditions: for Healthspan (80th Percentile) / Mean Lifespan: chronic, mean ±SE; for lifespan compared with concurrent control: all tested concentrations
Procedure: Flies used in the lifespan assays show the same genetic background those used in the genotoxicity assays in order to compare both result. The treated adults consisted of the F1 progeny from mwh and flr^3 parental strains produced by a 24 h eggs-lying in yeast medium. The same compounds and concentrations as in the toxicity/genotoxicity experiments were assayed. Lifespan assays were carried out at 25 °C according to the procedure described by Fernandez-Bedmar et al.. Briefly, synchronized 72 ± 12-h-old trans-heterozygous larvae were washed in distilled water, collected and transferred in groups of 100 individuals into test vials containing 0.85 g Drosophila Instant Medium and 4 mL of the different concentrations of the compounds to be assayed. Emerged adults from pupae were collected under CO2 anaesthesia and placed in groups of 25 individuals of the same sex into sterile vials containing 0.21 g Drosophila Instant Medium and 1 mL of different concentrations of the compounds to be tested. Flies were chronically treated during all their life. The number of survivors was determined twice a week in three different replicates.

HL-60 cells = experiment: Cytotoxicity assay, Trypan blue exclusion test; assay type: cell-based, human; conditions: HL-60, 72 h
Procedure: Promyelocytic human leukaemia (HL-60) immortal cells originated from a person suffering myeloid leukaemia were grown as suspension cultures in RPMI-1640 medium ([…], Sigma-Aldrich, St. Louis, MO, USA) supplemented with 10% heat-inactivated foetal bovine serum (S01805, Linus, Madrid, Spain), L-glutamine 2 mM (G7513, Sigma-Aldrich, St. Louis, MO, USA) and 1× antibiotic-antimycotic solution from a 100× stock solution containing 10,000 units of penicillin, 10 mg of streptomycin and 25 μg of amphotericin B per mL ([…], Sigma-Aldrich, St. Louis, MO, USA). Cells were incubated at 37 °C in a 80% humidified atmosphere 5% CO2. Cultures were plated at 2.5 × 10^4 cells/mL density in 10 mL culture bottles and passed every 2 days. Trypan blue exclusion test was used to determine the cell viability exerted by the assayed compounds, according to our standard procedures. […] After culture, cells were stained with a 1:1 volume ratio of Trypan blue dye (T8154, Sigma-Aldrich, St. Louis, MO, USA) and counted in a Neubauer chamber at 100× magnification. The survival percentage of each treatment compared with the control was recorded in three independent replicates. Data are expressed as mean ± standard deviation of the mean (SEM).

[2] = test system: LINE-1 repetitive sequences of HL-60 cells; experiment: Methylation status by qMSP, LINE-1; assay type: cell-based, human; conditions: HL-60, 5 h
Procedure: Then, DNA was extracted similarly to previously described DNA fragmentation assay. After that, the DNA was converted with bisulphite (EZ DNA Methylation-Gold™ Kit, Zymo Research, Irvine, CA, USA). Bisulphite-modified DNA was used for fluorescence-based real-time quantitative Methylation-Specific PCR (qMSP) using 5 µM of each forward and reverse primer (Isogen Life Science BV, Utrecht, The Netherlands), 2 µL of iTaq™ Universal SYBR® Green Supermix (Bio-Rad Laboratories, Inc., Hercules, CA, USA); it contains antibody-mediated hot-start iTaq DNA polymerase, dNTPs, MgCl2, SYBR® Green I dye, enhancers, stabilizers and a blend of passive reference dyes including ROX and fluorescein) and 25 ng of bisulphite converted genomic DNA.
PCR conditions included initial denaturalisation at 95 °C for 3 min and amplification which consisted of 45 cycles at 95 °C for 10 s, 60 °C for 15 s and 72 °C for 15 s, taking picture at the end of each elongation cycle. After that, melting curve was determined increasing 0.5 °C each 0.05 s from 60 °C to 95 °C and taking pictures.
QMSP was carried out in 48 well plates in MiniOpticon Real-Time PCR System (MJ Mini Personal Thermal Cycler, Bio-Rad) and were analysed by Bio-Rad CFX Manager 3.1 Software. The housekeeping Alu-C4 was used as a reference to correct for total DNA input. Alu-C4 and the target repetitive elements Alu-M1, LINE-1 and Sat-α were obtained from Isogen Life Science (Utrecht, The Netherlands) and their sequences are shown in Table 4. Each sample was analysed in triplicate.
The results of each CT were obtained from each qMSP. Data were normalised with the housekeeping Alu C4 using the Nikolaidis et al. and Liloglou et al. comparative CT method (ΔΔCT). One-way ANOVA and post-hoc Tukey’s test are used to evaluate the differences between the tested compounds, repetitive elements and concentrations.

[3] = test system: human umbilical endothelial cells; conditions: 30 mM GLU; cited from earlier work
Drosophila melanogaster [4] = experiment: Antitoxicity assay, combined treatment with 0.15 M H2O2
Procedure: Toxicity was assayed according to our standard protocols. CRB and SFRB were tested at five concentrations: 1, 4, 8.12, 32.5 and 130 mg/mL and 0.16, 0.625, 1.25, 5 and 20 mg/mL, respectively. […] Tested groups consisted of larvae fed with Drosophila Instant Medium (Formula 4–24, Carolina Biological Supply, Burlington, NC, USA) supplemented with the assessed compounds concentrations. Emerging adults of all groups were counted and toxicity was determined as the percentage of hatched individuals in each treatment compared with the negative control.

Drosophila melanogaster [5] = experiment: Toxicity assay, survival of larvae to adults (simple treatment)
Procedure: Toxicity was assayed according to our standard protocols. […] Tested groups consisted of larvae fed with Drosophila Instant Medium (Formula 4–24, Carolina Biological Supply, Burlington, NC, USA) supplemented with the assessed compounds concentrations. Emerging adults of all groups were counted and toxicity was determined as the percentage of hatched individuals in each treatment compared with the negative control.

CHO cells = test system: CHO cells; design: method as in PMID 7588651; conditions: 1 mM TAU; cited from earlier work
Drosophila = conditions: cited from earlier work
calf thymus DNA = test system: calf thymus DNA; design: method as in PMID 11787620; conditions: 5–20 mM TAU; cited from earlier work
[6] = GLU 2.7 mM vs concurrent water control
[7] = GLU 11 mM vs concurrent water control
[8] = GLU 21.86 mM vs concurrent water control
[9] = GLU 87.5 mM vs concurrent water control
[10] = GLU 350 mM vs concurrent water control
[11] = TAU 0.25 mM vs concurrent water control
[12] = TAU 1 mM vs concurrent water control
[13] = TAU 2 mM vs concurrent water control
[14] = TAU 8 mM vs concurrent water control
[15] = TAU 32 mM vs concurrent water control

OC[C@H]1OC(O)[C@H](O)[C@@H](O)[C@@H]1O (some centres unmarked) [GLU, Glucose]
increase of the quality of life (healthspan) (Drosophila melanogaster [1]; 350 mM GLU): 34% | Healthspan Difference (%) (Drosophila melanogaster [1]; [6]): −4.5% | Mean Lifespan Difference (%) (Drosophila melanogaster [1]; [6]): 2.65% | Healthspan (80th Percentile) (Drosophila melanogaster [1]; GLU 2.7 mM): 31.14 ± 1.53 days | Mean Lifespan (Drosophila melanogaster [1]; GLU 2.7 mM): 61.25 ± 2.12 days | Healthspan Difference (%) (Drosophila melanogaster [1]; [7]): 25.65% | Mean Lifespan Difference (%) (Drosophila melanogaster [1]; [7]): 8.76% | Healthspan (80th Percentile) (Drosophila melanogaster [1]; GLU 11 mM): 41 ± 3.4 days | Mean Lifespan (Drosophila melanogaster [1]; GLU 11 mM): 64.9 ± 2.05 days | Healthspan Difference (%) (Drosophila melanogaster [1]; [8]): −5.8% | Mean Lifespan Difference (%) (Drosophila melanogaster [1]; [8]): 5.9% | Healthspan (80th Percentile) (Drosophila melanogaster [1]; GLU 21.86 mM): 30.66 ± 3.62 days | Mean Lifespan (Drosophila melanogaster [1]; GLU 21.86 mM): 63.21 ± 2.08 days | Healthspan Difference (%) (Drosophila melanogaster [1]; [9]): −8.4% | Mean Lifespan Difference (%) (Drosophila melanogaster [1]; [9]): 1.39% | Healthspan (80th Percentile) (Drosophila melanogaster [1]; GLU 87.5 mM): 29.9 ± 1.96 days | Mean Lifespan (Drosophila melanogaster [1]; GLU 87.5 mM): 60.5 ± 2.5 days | Healthspan Difference (%) (Drosophila melanogaster [1]; [10]): −34% | Mean Lifespan Difference (%) (Drosophila melanogaster [1]; [10]): −1.2% | Healthspan (80th Percentile) (Drosophila melanogaster [1]; GLU 350 mM): 21.5 ± 0.76 days | Mean Lifespan (Drosophila melanogaster [1]; GLU 350 mM): 59 ± 3.1 days | lifespan compared with concurrent control (Drosophila melanogaster [1]): did not significantly differ | IC50 (HL-60 cells; Homo sapiens, mean ± SD in Figure 3, read-out: IC50 (inhibitory concentration 50)): 42.7 mM | methylation status of LINE elements ([2]; 11 mM GLU): hypomethylated | methylation status of LINE repetitive element ([2]; 350 mM GLU): reduced the methylation status | cytotoxicity [3]: cytotoxicity was demonstrated | Survival (%) Combined Treatment (Drosophila melanogaster [4]; GLU 2.7 mM + 0.15 M hydrogen peroxide): 60% | Survival (%) Combined Treatment (Drosophila melanogaster [4]; GLU 11 mM + 0.15 M hydrogen peroxide): 84.35 * % | Survival (%) Combined Treatment (Drosophila melanogaster [4]; GLU 21.86 mM + 0.15 M hydrogen peroxide): 88.65 * % | Survival (%) Combined Treatment (Drosophila melanogaster [4]; GLU 87.5 mM + 0.15 M hydrogen peroxide): 79 * % | Survival (%) Combined Treatment (Drosophila melanogaster [4]; GLU 350 mM + 0.15 M hydrogen peroxide): 72 * % | Survival (%) Simple Treatment (Drosophila melanogaster [5]; GLU 2.7 mM): 98% | Survival (%) Simple Treatment (Drosophila melanogaster [5]; GLU 11 mM): 92.65% | Survival (%) Simple Treatment (Drosophila melanogaster [5]; GLU 21.86 mM): 90.32% | Survival (%) Simple Treatment (Drosophila melanogaster [5]; GLU 87.5 mM): 70.3 * % | Survival (%) Simple Treatment (Drosophila melanogaster [5]; GLU 350 mM): 65 * %

NCCS(=O)(=O)O [TAU, 2-aminoethanesulfonic acid]
Healthspan Difference (%) (Drosophila melanogaster [1]; [11]): −7.3% | Mean Lifespan Difference (%) (Drosophila melanogaster [1]; [11]): 4.57% | Healthspan (80th Percentile) (Drosophila melanogaster [1]; TAU 0.25 mM): 34.98 ± 3.954 days | Mean Lifespan (Drosophila melanogaster [1]; TAU 0.25 mM): 67.94 ± 2.603 days | Healthspan Difference (%) (Drosophila melanogaster [1]; [12]): −20% | Mean Lifespan Difference (%) (Drosophila melanogaster [1]; [12]): 2.81% | Healthspan (80th Percentile) (Drosophila melanogaster [1]; TAU 1 mM): 30.22 ± 1.878 days | Mean Lifespan (Drosophila melanogaster [1]; TAU 1 mM): 66.81 ± 3.215 days | Healthspan Difference (%) (Drosophila melanogaster [1]; [13]): −6.4% | Mean Lifespan Difference (%) (Drosophila melanogaster [1]; [13]): −4.8% | Healthspan (80th Percentile) (Drosophila melanogaster [1]; TAU 2 mM): 35.357 ± 0.9 days | Mean Lifespan (Drosophila melanogaster [1]; TAU 2 mM): 61.83 ± 2.25 days | Healthspan Difference (%) (Drosophila melanogaster [1]; [14]): −2.6% | Mean Lifespan Difference (%) (Drosophila melanogaster [1]; [14]): 7.95% | Healthspan (80th Percentile) (Drosophila melanogaster [1]; TAU 8 mM): 36.8 ± 2.832 days | Mean Lifespan (Drosophila melanogaster [1]; TAU 8 mM): 70.142 ± 2.385 days | Healthspan Difference (%) (Drosophila melanogaster [1]; [15]): −3.2% | Mean Lifespan Difference (%) (Drosophila melanogaster [1]; [15]): 1.6% | Healthspan (80th Percentile) (Drosophila melanogaster [1]; TAU 32 mM): 36.57 ± 3.55 days | Mean Lifespan (Drosophila melanogaster [1]; TAU 32 mM): 66.04 ± 2.055 days | lifespan compared with concurrent control (Drosophila melanogaster [1]): did not significantly differ | cell proliferation (HL-60 cells; 2 mM TAU): induced a decrease of cell proliferation | cytotoxic activity (HL-60 cells; any assayed concentration): did not show cytotoxic activity | IC50 (inhibitory concentration 50) (HL-60 cells; mean ± SD in Figure 3): not found | methylation status of LINE-1 ([2]; TAU highest concentration (32 mM)): reduced this methylation status; also recorded: induced hypomethylation | induction of chromosome aberrations and sister chromatid exchanges (CHO cells): not able to induce neither chromosome aberrations nor sister chromatid exchanges | lifespan of Drosophila (Drosophila; 1.6% TAU): decrease the lifespan | adult lifespan of Drosophila (Drosophila; TAU 0.05 to 0.20 M): had no influence on adult lifespan | estimated mean values of survival (Drosophila; TAU 8–24 mM): increased the estimated mean values of survival | protection of DNA against oxidative damage (calf thymus DNA): DNA-protected concentrations against oxidative damage | Survival (%) Combined Treatment (Drosophila melanogaster [4]; TAU 0.25 mM + 0.15 M hydrogen peroxide): 40.76% | Survival (%) Combined Treatment (Drosophila melanogaster [4]; TAU 1 mM + 0.15 M hydrogen peroxide): 57.69 * % | Survival (%) Combined Treatment (Drosophila melanogaster [4]; TAU 2 mM + 0.15 M hydrogen peroxide): 56.9 * % | Survival (%) Combined Treatment (Drosophila melanogaster [4]; TAU 8 mM + 0.15 M hydrogen peroxide): 40% | Survival (%) Combined Treatment (Drosophila melanogaster [4]; TAU 32 mM + 0.15 M hydrogen peroxide): 42.3%
